This note sets out measurements from patent publication US20110201642A1, “Bioactive Compounds” (priority 2008, published 2011).

Holding throughout (assay type): cell-based
Experiment [1] relates to MCF7 (ATCC HTB-22) human breast cancer cell line. As to the kind of experiment: MTT cytotoxic assay against MCF7 (96 h). To be noted: for IC50: Homo sapiens, MCF7, 96 h. The procedure:
(§1) Human breast cancer, MCF7 (ATCC HTB-22) and human colon cancer, HCT116 (ATCC CCL-247) cell lines were all maintained in RPMI 1640 (Sigma), supplemented with 10% Foetal Bovine Serum (FBS, PAA Laboratories). Cells of 80-85% confluence were harvested and plated onto 96-flat bottom well plates for experimental use. In all experiments, cells were incubated in a CO2 incubator at 37° C. with 5% CO2 overnight prior to treatment.
(§2) Compounds were tested against MCF7 and HCT116 and incubated for 96 h before cytotoxic assay using the MTT (3-(4,5-dimethylthiazole-2-yl)-2,5-diphenyltetrazolium bromide) assay according to Mosmann (J. Immunol Meth. 65 (1983) 55-63). Plates were read using an Elisa plate reader at 520 nm. Data generated was used to plot a dose response curve. Cytotoxic activity was expressed as the mean concentration of extract required to kill 50% of the cell population (IC50).

In experiment [2] the test system is P388 murine leukemia cell line. As to the kind of experiment: Cytotoxicity against P388 murine leukemia cell line. The settings on record: for IC50: Mus musculus, P388 murine leukemia. The procedure: The Compounds A1-A5 were assayed against three cell lines: murine leukemia, P388; human breast cancer, MCF7 (ATCC HTB-22); and human colon cancer, HCT116 (ATCC CCL-247).

For experiment [3], the system named is HCT116 (ATCC CCL-247) human colon cancer cell line. As to the kind of experiment: MTT cytotoxic assay against HCT116 (96 h). As to the method:
as §1, §2

[4] abbreviates: Homo sapiens, HCT-116, 96 h, read-out: IC50 (nM) HCT116.
Setting [5] is: Homo sapiens, HCT-116, 96 h, read-out: IC50 (ng/mL) HCT116.

Each structure is given as a SMILES string. Where two headings read alike, the source gives them in different places.

With `CCC(C)C1NC(=O)C(C(O)C(C)C)NC(=O)C2CCCCN2C(=O)C(C)N(C)C(=O)C(CC(C)C)NC(=O)C(C(O)C(C)C)N(C)C(=O)C(C)N(C)C1=O` (stereo not shown) [Compound A2], the IC50 in experiment [1] (read-out: IC50 (nM) MCF7) stood at 8.3 nM; in experiment [1] (read-out: IC50 (ng/mL) MCF7) it was 6.6 ng/mL; in experiment [2] (read-out: IC50 (nM) P388) it was 56 nM; in experiment [2] (read-out: IC50 (ng/mL) P388), 45 ng/mL; in experiment [3] (setting [4]) it was 11.6 nM; in experiment [3] (setting [5]), 9.3 ng/mL.

For the molecule `C=CC(C)CC1NC(=O)C(C(O)C(C)CC)N(C)C(=O)C(C)N(C)C(=O)C(C(C)CC)NC(=O)C(C(O)C(C)C)NC(=O)C2CCCCN2C(=O)C(C)N(C)C1=O` (stereo not shown) [Compound A5], the IC50 in experiment [1] (read-out: IC50 (nM) MCF7) stood at 1 nM; in experiment [1] (read-out: IC50 (ng/mL) MCF7), 0.8 ng/mL; in experiment [2] (read-out: IC50 (nM) P388) it was 0.13 nM; in experiment [2] (read-out: IC50 (ng/mL) P388), 0.1 ng/mL; in experiment [3] (setting [4]), 0.3 nM; in experiment [3] (setting [5]), 0.2 ng/mL. Moreover, the “factor between the least active, Compound A2, and the most active, Compound A5” value in experiment [2] (P388 data) is on record as ~450.

On to `C=CC(C)CC1NC(=O)C(C(O)C(C)C)N(C)C(=O)C(C)N(C)C(=O)C(C(C)C)NC(=O)C(C(O)C(C)C)NC(=O)C2CCCCN2C(=O)C(C)N(C)C1=O` (stereo not shown) [Compound A1], for which the IC50 in experiment [1] (read-out: IC50 (nM) MCF7) was 8.1 nM; in experiment [1] (read-out: IC50 (ng/mL) MCF7) it was 6.5 ng/mL; in experiment [2] (read-out: IC50 (nM) P388), 3.8 nM; in experiment [2] (read-out: IC50 (ng/mL) P388), 3 ng/mL; in experiment [3] (setting [4]), 5.9 nM; in experiment [3] (setting [5]), 4.7 ng/mL.

For the molecule `CCC(C)CC1NC(=O)C(C(O)C(C)C)N(C)C(=O)C(C)N(C)C(=O)C(C(C)CC)NC(=O)C(C(O)C(C)C)NC(=O)C2CCCCN2C(=O)C(C)N(C)C1=O` (stereo not shown) [Compound A4], the IC50 in experiment [1] (read-out: IC50 (nM) MCF7) stood at 7.1 nM; in experiment [1] (read-out: IC50 (ng/mL) MCF7), 5.7 ng/mL; in experiment [2] (read-out: IC50 (nM) P388), 24 nM; in experiment [2] (read-out: IC50 (ng/mL) P388) it was 19 ng/mL; in experiment [3] (setting [4]) it was 3.9 nM; in experiment [3] (setting [5]) it was 3.1 ng/mL.

With `N.N.[Cl][Pt][Cl]` [cisplatin, reference compound], the “IC50 (ng/mL) MCF7” value in experiment [1] (MCF7 human breast cancer, MTT, 96 h) is listed as 8705 ng/mL. Besides, the “IC50 (ng/mL) HCT116” value in experiment [3] (HCT116 human colon cancer, MTT, 96 h) was 1650 ng/mL.

For `C=CC(C)CC1NC(=O)C(C(O)C(C)C)N(C)C(=O)C(C)N(C)C(=O)C(C(C)CC)NC(=O)C(C(O)C(C)C)NC(=O)C2CCCCN2C(=O)C(C)N(C)C1=O` (stereo not shown) [Compound A3], the IC50 in experiment [1] (read-out: IC50 (nM) MCF7) was 0.9 nM; in experiment [1] (read-out: IC50 (ng/mL) MCF7), 0.73 ng/mL; in experiment [2] (read-out: IC50 (nM) P388), 1.3 nM; in experiment [2] (read-out: IC50 (ng/mL) P388), 1 ng/mL; in experiment [3] (setting [4]), 0.3 nM; in experiment [3] (setting [5]) it was 0.2 ng/mL.

On to `O=c1[nH]cc(F)c(=O)[nH]1` [5-fluorouracil, reference compound], for which the IC50 in experiment [3] (HCT-116, HCT116 human colon cancer, MTT, 96 h, read-out: IC50 (ng/mL) HCT116) came to 910 ng/mL.
